In brackets after ≈: the same amount, converted by molar mass.
Tests used:
[1] = Lipophilicity, logP of the compound by LC/UV/MS analysis; type: physicochemical; details: octanol/water
[2] = Lipophilicity, logD of compound at pH 7.4 by shake flask method; type: physicochemical; details: buffer
[3] = Plasma protein binding in human assessed as free fraction at 1 mM by equilibrium dialysis assay; type: ADME, cell-free
[4] = Aqueous solubility of compound in pH 7.4 phosphate buffer; type: physicochemical
[5] = Metabolic stability in mouse liver microsomes assessed as compound remaining at 1 uM measured upto 60 mins in presence of NADPH for 15 mins by LC-MS/MS analysis; type: ADME, Microsome; details: for remaining at 1 h, 1 µM: liver microsomes, read-out: Stability; for Stability: microsomes, 1 h, 1 µM
[6] = Metabolic stability in human liver microsomes assessed as half life at 1 uM measured upto 60 mins by LC-MS/MS analysis; type: ADME, Microsome; details: for t1/2: microsomes, 1 h, 1 µM; for half-life at 1 µM: liver microsomes
[7] = Metabolic stability in human liver microsomes assessed as compound remaining at 1 uM measured upto 60 mins in presence of NADPH for 15 mins by LC-MS/MS analysis; type: ADME, Microsome; details: for Stability: microsomes, 1 h, 1 µM; for remaining at 1 h, 1 µM: liver microsomes, read-out: Stability
[8] = Metabolic stability in mouse liver microsomes assessed as half life at 1 uM measured upto 60 mins by LC-MS/MS analysis; type: ADME, Microsome; details: for half-life at 1 µM: liver microsomes; for t1/2: microsomes, 1 h, 1 µM
[9] = Metabolic stability in mouse liver microsomes assessed as intrinsic clearance at 1 uM measured upto 60 mins by LC-MS/MS analysis; type: ADME, Microsome; details: 1 h
[10] = Metabolic stability in human liver microsomes assessed as intrinsic clearance at 1 uM measured upto 60 mins by LC-MS/MS analysis; type: ADME, Microsome; details: 1 h
[11] = Metabolic stability in mouse liver microsomes at 1 uM measured upto 60 mins by LC-MS/MS analysis; type: ADME, Microsome; details: 1 h
HepG2 = assay: Cytotoxicity against human HepG2 cells assessed as inhibition of cell growth incubated for 3 days by trypan blue assay; type: functional, cell-based; details: HepG2, 72 h

| SMILES | logP [1] | logD [2] | fraction unbound [3] | solubility [4] [µM] | further results |
| --- | --- | --- | --- | --- | --- |
| c1ccc(CCCN2CCCCC2)cc1 | 5.1 | 1 | – | – | – |
| c1ccc(COCCCON2CCCCC2)cc1 | 4.8 | 3 | – | – | – |
| c1ccc(CCON2CCCCC2)cc1 | 4.8 | 3.2 | – | – | – |
| c1ccc2c(c1)CCCN2OCCN1CCN(C2CCCCC2)CC1 | 5 | 2.4 | 0.341 | > 300 | remaining at 1 h, 1 µM [5]: 4.32%; t1/2 [6]: 13.74 min; Stability [7]: 48.07%; half-life at 1 µM [8]: 3.19 min |
| c1ccc(CCCC2CCCCC2)cc1 | 6.6 | – | – | – | – |
| c1ccc2c(c1)CCCC2OCCN1CCN(C2CCCCC2)CC1 (stereo not given) | 5 | 2.7 | 0.322 | 287 (≈ 98.3 µg/mL) | remaining at 1 h, 1 µM [5]: 3.98%; t1/2 [6]: 5.67 min; Stability [7]: 17.01%; half-life at 1 µM [8]: 3.12 min |
| c1ccc(CCOC2CCCCC2)cc1 | 6.2 | – | – | – | – |
| CCCCCOC1CCc2ccccc2C1 (stereo not given) | 6.6 | – | – | – | – |
| c1ccc(COCCCOC2CCCCC2)cc1 | 6.2 | – | – | – | – |
| COc1ccccc1OCCCN1CCOCC1 | 2.3 | 1.3 | 0.573 | 273 (≈ 68.6 µg/mL) | CLint [9]: 315 µL/min/mg; remaining at 1 h, 1 µM [5]: 10.2%; CLint [10]: < 5 µL/min/mg; half-life at 1 µM [6]: > 300 min; remaining at 1 h, 1 µM [7]: 91%; half-life at 1 µM [8]: 4.4 min |
| c1ccc(COCCCCN2CCCCC2)cc1 | 5.8 | 0.9 | – | – | – |
| COc1ccccc1OCCON1CCOCC1 | 2.1 | 1.3 | 0.625 | 293 (≈ 74.2 µg/mL) | CLint [9]: 129 µL/min/mg; Stability [5]: 36.43%; CLint [10]: 14 µL/min/mg; t1/2 [6]: 98.54 min; Stability [7]: 91.54%; t1/2 [8]: 10.75 min |
| c1ccc2c(c1)CCCN2CCCN1CCN(C2CCCCC2)CC1 | 5.3 | 1.8 | 0.153 | 275 (≈ 93.9 µg/mL) | remaining at 1 h, 1 µM [5]: 8.5%; half-life at 1 µM [6]: 5.06 min; remaining at 1 h, 1 µM [7]: 13.7%; half-life at 1 µM [8]: 4.07 min |
| c1ccc(COCCCCC2CCCCC2)cc1 | 6.6 | – | – | – | – |
| CCCCCCN1CCc2ccccc2C1 | 5.3 | 3.3 | – | – | – |
| COc1ccccc1OCCCC1CCOCC1 | 3.4 | – | 0.106 | 244 (≈ 61.1 µg/mL) | Stability ([5]; BLD = below limit of detection): Bld; CLint [10]: 77 µL/min/mg; t1/2 [6]: 18.07 min; Stability [11]: Unstable; Stability [7]: 50.46% |
| CCCCCON1CCc2ccccc2C1 | 5.9 | 4.7 | – | – | – |
| COc1ccccc1OCCOC1CCOCC1 | 2.1 | – | 0.544 | 275 (≈ 69.4 µg/mL) | CLint [9]: 196 µL/min/mg; Stability [5]: 24.08%; CLint [10]: 17 µL/min/mg; t1/2 [6]: 83.41 min; Stability [7]: 82.92%; t1/2 [8]: 7.06 min |
| CCCCCCC1CCc2ccccc2C1 (stereo not given) | 7.9 | – | – | – | – |
| c1ccc2c(c1)CCCC2CCCN1CCN(C2CCCCC2)CC1 (stereo not given) | 6.2 | 3.9 | 0.0519 | 288 (≈ 98.1 µg/mL) | CLint [9]: 455 µL/min/mg; remaining at 1 h, 1 µM [5]: 3.7%; CLint [10]: 275 µL/min/mg; half-life at 1 µM [6]: 5.04 min; remaining at 1 h, 1 µM [7]: 13.6%; half-life at 1 µM [8]: 3.05 min |
| O=C(CCCCCCC(=O)Nc1ccccc1)NO [VORINOSTAT] | – | – | – | – | IC50 (HepG2): 3.2 ng/mL (≈ 0.0121 µM) |

Source: ChEMBL document CHEMBL5131521, “The N,N,O-Trisubstituted Hydroxylamine Isostere and Its Influence on Lipophilicity and Related Parameters” (ACS Med Chem Lett, 2022)
